The subject of assay [1] is memory loss induced by an acute administration of scopolamine (ESC). Put plainly: Y-maze, short-term spatial memory, acute scopolamine (ESC) model. The class given is in vivo, mice. Here is the method: Young male OF-1 mice (20-25 g), supplied by the National Center for the Laboratory Animals Production (CENPALAB, Cuba), were used. Before the experiment, the animals were adapted for seven days to laboratory conditions (controlled temperature 25±2° C., relative humidity 60±10% and light/dark cycles of 12 h). During this period, and during the experiment, the animals received ad libitum water and a standard diet for rodents supplied by CENPALAB. All procedures were carried out in accordance with the European Commission guidelines for the use and care of laboratory animals and approved by the Committee for the Care of Research Animals. The minimum number of animals and duration of observations required to obtain consistent data was used.
At the end of the adaptation period, the animals were randomly distributed according to their body weights in 5 experimental groups of 12 animals per group. Scopolamine hydrobromohydrate (ESC, Sigma Aldrich) was used to induce cognitive deficit, which was dissolved in physiological saline and administered intraperitoneally (ip) at a dose of 1.5 mg/kg, 30 minutes before the test (Miranda H F et al. in. J. Biomed. Sci., 2014 21 (1): 62-62). The doses of compound 3 used were 0.1, 1, 10 and 20 mg/kg of body weight. The compound was formulated using carboxymethyl cellulose (CMC). The administration scheme was designed as follows:
Group 1 (negative control) with normal cognitive function. Two administrations with an interval of 30 minutes with vehicle (5% CMC) by oral route and saline solution by i.p. route, respectively.
Group 2 (positive control) with cognitive dysfunction. Two administrations with an interval of 30 minutes, the first with vehicle (5% CMC), the second with ESC 1 mg/kg.
Group 3, 4, 5 and 6 treated with 3 (0.1, 1, 10 and 20 mg/kg). Two administrations with an interval of 30 minutes, the first with 3 at the dose corresponding to each group, the second with ESC 1 mg/kg. The behavioral evaluation was carried out 30 minutes after this second administration.
The study of short-term spatial memory was carried out through the study of novel spatial preference, using the Y-maze behavioral paradigm (40 cm long×9 cm wide×16 cm high) with extra-labyrinthine tracks around of the maze. The test consisted of two trials separated by an interval of 2 hours. In the first training test (acquisition), the mice were placed in the center of the maze and facing the end of one of the arms whose selection was random. After being positioned, they were allowed to explore the maze for 10 minutes with one of the arms closed (novel arm). At the end of this test, the mice were returned to their original cage until the second test (recovery), during which they could freely explore the three arms of the maze for 5 minutes. The total residence time (exploration) in each arm was measured and analyzed from video recordings. The entrance to the arm was defined as the entrance of the four legs of the animal in said arm. The residence time (sec) in each arm during the recovery test of the learned task was used for the statistical analysis. The maze was cleaned with 70% ethanol between runs. All mice were transported to the behavioral testing room in their home cages at least 1 day prior to testing. The experiments were carried out between 8:00 am and 12:30 pm.
All data are expressed as the mean±standard error of the mean (SEM). The Morris water maze data was analyzed in two ways. Escape latencies in the visible platform training phase were analyzed using a two-factor ANOVA (treatment×trial). For the study of long-term memory, the last escape latency value of the training phase with the visible platform (D1 V4) and the first value of the test with the hidden platform performed 24 h later (D2T1) were used. Mice with intact long-term memory capacity should quickly reach the hidden platform in the first test. A scoring system was generated with the difference D2T1−D1 V4 and with the ratio D2T1/D1V4. […]

For assay [2], the system named is memory loss induced with the chronic use of scopolamine. Put plainly: Morris water maze, chronic ESC model. The class given is in vivo, mice. As to the method: Male C57BL/6 mice (20-25 g), supplied by the National Center for the Laboratory Animals Production (CENPALAB, Cuba) were used. During the experiment, the animals received adlibitum water and standard diet supplied by CENPALAB. All procedures were carried out in accordance with the European Commission guidelines for the use and care of laboratory animals and approved by the Committee for the Research Animals Care. The minimum number of animals and duration of observations required to obtain consistent data was used.
At the end of the adaptation period, the animals were randomly distributed according to their body weights in five experimental groups of 12 animals each. For the induction of cognitive deficit, ESC (Sigma Aldrich) was used, which was dissolved in physiological saline and administered daily intraperitoneally (ip) at a dose of 1.5 mg/kg for 2 weeks, in the morning (Park J H, et al. In J Mol Neurosci. 2016; 59 (4): 579-589). Compound 3 was prepared as a suspension, in 0.5% soluble starch (Merck Millipore), and administered orally by intragastric cannula at a daily dose of 0.1, 1, 10 mg/kg of body weight […]. The experimental groups were: […]
Morris Water Maze (MWM): Analogous to Example 2, the two-day MWM test was used to determine long-term spatial memory. […] In this way, long-term spatial memory was determined by the quotient of the escape latency values D2T1/D1V6. […]

In the next assay the test system is SH-SY5Y cells. Description: Neuroprotection against glutamate-induced excitotoxic damage (MTT). Conditions: 7.5 and 15 μmol/L; 24 h pre-treatment, then 60 mmol/L glutamate 24 h; p<0.05.

Molecules are shown by their SMILES.

Procedure for SH-SY5Y cells: In addition, gentamicin (100 μg/mL) was added, then called complete medium (CM). […] The medium was changed every two days and the cells were subcultured every five days by trypsinization at a density of 4-5×10^6 cells/75 cm^2 flask for experimental work and/or subculture of a new generation of cells for later use.
Once the cell density was known, they were seeded in a 96-well culture plate (200 μL in each well) at a concentration of 80×10^4 cells/well.
Cell viability. MTT assays: Cell viability was measured through formazan blue products obtained from the enzymatic transformation of MTT (3-(4,5-dimethyl-2-thiazolyl)-2,5-diphenyl-2Htetrazoliumbromide) by mitochondrial dehydrogenases, which are active only in viable cells. […] Then 100 μL of isobutylalcohol (SDS 10%, 2-butanol 50%, 0.25 μL HCl 2 mmol/L) was added to each well to solubilize the formazan crystals, and the optical density of each well was measured before 30 minutes at 570 nm in a Clariostar spectrophotometer (BMG Labtech). The correction of the OD values was carried out at 690 nm. Three replications were carried out for each experiment. The results were expressed as the percentage of optical density of each experimental variant in relation to the Optical density obtained for the group of cells not treated with glutamate.

Consider `CSC(=S)NCCNC(=O)CCC(=O)Nc1cccc2ccccc12` [compound 3, methyl(2-{[4-(1-naphthylamino)-4-oxobutanoyl]amino}ethyl)dithiocarbamate], for which the “dose with the greatest effect” value in assay [1] (Y-maze, acute ESC model) is recorded as 1 mg/kg. Further, the “residence (exploration) time in the novel arm” value is recorded as “a decrease in this parameter was observed” in assay [1] (compound 3 at doses higher than 1 mg/kg (10, 20 mg/kg)) and “gradual increase in the exploration time, significantly different from the ESC group” in assay [1] (compound 3 up to the 1 mg/kg dose, p<0.01 vs ESC). Also, the “amnesia induced by ESC, preference for novel arm in Y-maze” value in assay [1] (compound 3 single doses 0.1 mg/kg to 10 mg/kg, 30 min before ESC, p<0.001) is listed as “significantly reversed”. In assay [2] (MWM, chronic ESC model), this molecule had a maximum effect dose of 1 mg/kg. Besides, the “ratio of first escape latency with hidden platform (T7) and last test with visible platform (T6)” value in assay [2] (compound 3 1 and 10 mg/kg oral daily, ESC 1.5 mg/kg daily, 2 weeks) was “significantly decreased compared to the ESC group”. Besides, in the assay on SH-SY5Y cells, the “neuronal death generated by glutamate (MTT viability)” value is “significantly decreased”.

These data come from US20240299334A1, “PHARMACEUTICAL COMPOSITION OF NAPHTHALENE DERIVATIVES AS MULTI-TARGETED THERAPEUTIC AGENTS FOR THE TREATMENT OF ALZHEIMER'S DISEASE” (CENTRO DE NEUROCIENCIAS DE CUBA, CNEURO, priority 2020, published 2024).
